Test results taken from patent publication US20100240768A1, “NOVEL NUTRACEUTICALCOMPOSITIONS CONTAINING THYMOL AND/OR P-CYMENE OR PLANT EXTRACTS FOR COGNITION” (priority 2007, published 2010).
Where two headings read alike, the source gives them in different places.

Experiments:
pMAPK = assay: Hippocampal slice cultures, synaptic marker pMAPK (immunohistochemistry); assay type: cell-based, Wistar rats; settings: 15 min treatment of slices after 48 h culture; compared to sister cultures treated with buffer
Experimental: (§1) Seven-day-old Wistar rats were decapitated using a guillotine. In less than 1 minute the skull was opened, the cerebral hemispheres were separated and transferred and both hippocampi were dissected and transferred into ice cold buffer containing 137 mM NaCl, 5 mM KCl, 0.85 mM Na2HPO4, 1.5 mM CaCl2, 0.66 mM KH2PO4, 0.28 mM MgSO4, 1 mM MgCl2, 2.7 mM NaHCO3, 1 mM Kynurenic acid and 0.6% D-glucose.
(§2) Transversal hippocampal slices (400 μm) were prepared using a vibrating blade microtome (VT1200S; Leica Microsystems (Schweiz) AG, Heerbrugg, Switzerland) in the same buffer. Hippocampal slices were individually placed on a membrane insert (Millicell Culture Plate Inserts, 0.4 μm) and cultivated at 35° C., 5% CO2, 95% humidity in a medium containing a 1:1 mixture of BME and MEM (both from Invitrogen) containing 25% heat-inactivated horse serum, 1× GlutaMAX, 1× Penicillin/Streptomycin, 0.6% glucose and 1 mM Kynurenic acid (Stoppini, Buchs and Muller (1991), J. Neurosci. Methods, 37(2), 173-82).
(§3) After 48 h in culture, synaptic NMDA receptors were activated by addition of thyme extract or its constituents for 15 min in 140 mM NaCl, 5 mM KCl, 1.3 mM CaCl2, 25 mM HEPES (pH 7.3), 33 mM D-glucose and 0.02 mM bicuculline methiodide. […] An additional positive control comprised the addition of 200 μM glycine to sister cultures. After the treatments, sections were washed and fixed for immunohistochemistry. Markers of enhanced synaptic activity, normally associated with long-term potentiation, representing an ex vivo model of learning and memory were quantitated (see Table 2, below).
(§4) Table 2. […]. The activation of any of these markers (or a combination thereof) is observed in classical LTP experiments.
(§5) Treatment of hippocampal cultures with thyme extracts as well as with both p-cymene and thymol induced biochemical markers typical for LTP (pCREB: activated form of the cAMP response element binding protein; pMAPK: activated form of the mitogen-activated protein kinase; GLUR1: cell surface presence of AMPA receptor 1).

GluR1 = assay: Hippocampal slice cultures, synaptic marker GluR1 (cell surface AMPA receptor 1); assay type: cell-based, Wistar rats; settings: 15 min treatment of slices after 48 h culture; compared to sister cultures treated with buffer
Experimental: as §1, §2, §3, §4, §5

pCREB = assay: Hippocampal slice cultures, synaptic marker pCREB (immunohistochemistry); assay type: cell-based, Wistar rats; settings: 15 min treatment of slices after 48 h culture; compared to sister cultures treated with buffer
Experimental: as §1, §2, §3, §4, §5

[1] = molecular target: T1, human glycine transporter 1b (GlyT1) (Homo sapiens, UniProt P48067); assay: Inhibition of glycine transporter 1 in a cellular assay ([3H]glycine uptake into CHO cells); assay type: cell-based; settings: for IC50 for tritiated glycine uptake: CHO cells expressing human GlyT1b, pure compounds, mean±s.e.m.; for IC50: dose-response curve, internalization of radioactive glycine into the cells, read-out: IC50 (FIG. 1, GlyT1 inhibition assay)
T1 construct: expressed in transfected cells
T1 sequence (P48067 1-652 isoform P48067-3): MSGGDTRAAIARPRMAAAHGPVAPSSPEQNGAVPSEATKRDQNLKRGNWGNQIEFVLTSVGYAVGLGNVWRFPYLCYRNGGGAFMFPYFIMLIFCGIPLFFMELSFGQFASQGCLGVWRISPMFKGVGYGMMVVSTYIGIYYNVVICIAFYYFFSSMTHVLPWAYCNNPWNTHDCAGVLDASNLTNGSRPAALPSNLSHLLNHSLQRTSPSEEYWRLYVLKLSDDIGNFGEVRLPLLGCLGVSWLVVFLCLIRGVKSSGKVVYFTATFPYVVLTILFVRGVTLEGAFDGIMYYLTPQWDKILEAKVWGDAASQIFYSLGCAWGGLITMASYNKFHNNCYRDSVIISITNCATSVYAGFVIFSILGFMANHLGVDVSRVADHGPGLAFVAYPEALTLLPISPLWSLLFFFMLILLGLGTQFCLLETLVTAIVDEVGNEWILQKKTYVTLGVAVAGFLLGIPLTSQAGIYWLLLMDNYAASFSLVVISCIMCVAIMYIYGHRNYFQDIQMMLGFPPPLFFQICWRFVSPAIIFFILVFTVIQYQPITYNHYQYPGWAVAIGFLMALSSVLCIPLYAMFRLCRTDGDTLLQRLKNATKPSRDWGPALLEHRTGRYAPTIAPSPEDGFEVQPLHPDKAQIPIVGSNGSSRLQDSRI
Experimental: Cells were harvested by trypsinisation one day prior to the assay and were seeded in the above mentioned medium. […] Glycine uptake into the cells was determined by addition of 60 nM radio-labelled [^3H] glycine (Amersham Biosciences GE Healthcare, Slough, UK) and incubation for 30 minutes at room temperature. Following removal of unincorporated label by gentle washing three times with the above buffer, incorporated glycine was quantified by liquid scintillation counting. […] Louis, USA) were used as known inhibitors of GlyT1.

NMDA receptor [2] = settings: mouse hippocampal slice preparation; Bergeron et al 1998; cited from earlier work
NMDA receptor [3] = settings: rat hippocampal slice preparation; Bergeron et al 1998; cited from earlier work
adult mice [4] = settings: systemic administration, Kinney et al 2003; cited from earlier work
adult mice [5] = settings: systemic administration, Kinney et al 2003; cited from earlier work; remark: listed apart in the source

IC50 for tritiated glycine uptake [1]	IC50 [1] [µM]	Compound	pMAPK relative activation (pMAPK)	GluR1 relative activation (symbol) (GluR1)	pCREB relative activation (pCREB)	other results
inactive		Cc1ccc(C(C)C)cc1 [P-Cymene]	++++	±	++	
	0.0359	CNCC(=O)O [Sarcosine, reference compound]				
inactive		Caryophyllene	±		±	

Further lines, the compound ahead of its results:

Compound	IC50 for tritiated glycine uptake [1]	IC50 [1] [µM]	pMAPK relative activation (pMAPK)	GluR1 relative activation (symbol) (GluR1)	pCREB relative activation (pCREB)	other results
C=CC(C)(O)CCC=C(C)C (stereo not shown) [Linalool]	inactive		±	±	±	
CN(CCC(Oc1ccc(-c2ccccc2)cc1)c1ccc(F)cc1)CC(=O)O (stereo not shown) [NFPS, N-[3-(4′-fluorophenyl)-3-(4′-phenylphenoxy)]propylsarcosine]						NMDA receptor responses in CA1 pyramidal cells (NMDA receptor [2]): enhanced; NMDA receptor responses in CA1 pyramidal cells (NMDA receptor [3]): enhanced; LTP in the dentate gyrus (adult mice [4]): increased; Prepulse inhibition of the acoustic startle response (adult mice [5]): enhanced
Cc1ccc(C(C)C)c(O)c1 [Thymol]		13.6			++++	GluR1 relative activation (GluR1): 250-767%
